Measured values published in patent US7041698B2, “Hepatitis C virus inhibitors” (Bristol-Myers Squibb Company, priority 2002, dated 2006).
Read-outs that look alike come from different tables or passages of the source.

Target: T1, HCV NS3/4A protease complex (UniProt P27958, C1454S/C1711G, species not given)
T1 construct: fused on or other part: Three-lysine solubilising tail at the C-terminus of NS4A
Experiment: Recombinant HCV NS3/4A protease complex FRET peptide assay (strain not stated)
Type: biochemical
Source text: Recombinant HCV NS3/4A Protease Complex FRET Peptide Assay
The purpose of this in vitro assay was to measure the inhibition of HCV NS3 protease complexes, derived from the BMS, H77C or J416S strains, as described below, by compounds of the present invention. This assay provides an indication of how effective compounds of the present invention would be in inhibiting HCV proteolytic activity.
Serum from an HCV-infected patient was obtained from Dr. T. Wright, San Francisco Hospital. An engineered full-length cDNA (compliment deoxyribonucleic acid) template of the HCV genome (BMS strain) was constructed from DNA fragments obtained by reverse transcription-PCR (RT-PCR) of serum RNA (ribonucleic acid) and using primers selected on the basis of homology between other genotype 1a strains. From the determination of the entire genome sequence, a genotype 1a was assigned to the HCV isolate according to the classification of Simmonds et al. (See P Simmonds, K A Rose, S Graham, S W Chan, F McOmish, B C Dow, E A Follett, P L Yap and H Marsden, J. Clin. Microbiol., 31(6), 1493–1503 (1993)). […] The infectious clones, H77C (1a genotype) and J4L6S (1b genotype) were obtained from R. Purcell (NIH) and the sequences are published in Genbank (AAB67036, see Yanagi, M., Purcell, R. H., Emerson, S. U. and Bukh, J. Proc. Natl. Acad. Sci. U.S.A. 94(16),8738–8743 (1997); AF054247, see Yanagi, M., St Claire, M., Shapiro, M., Emerson, S. U., Purcell, R. H. and Bukh, J, Virology 244 (1), 161–172. (1998)).
The BMS, H77C and J4L6S strains were used for production of recombinant NS3/4A protease complexes. DNA encoding the recombinant HCV NS3/4A protease complex (amino acids 1027 to 1711) for these strains were manipulated as described by P. Gallinari et al. (see Gallinari P, Paolini C, Brennan D, Nardi C, Steinkuhler C, De Francesco R. Biochemistry. 38(17):5620–32, (1999)). Briefly, a three-lysine solubilizing tail was added at the 3′-end of the NS4A coding region. The cysteine in the P1 position of the NS4A-NS4B cleavage site (amino acid 1711) was changed to a glycine to avoid the proteolytic cleavage of the lysine tag. Furthermore, a cysteine to serine mutation was introduced by PCR at amino acid position 1454 to prevent the autolytic cleavage in the NS3 helicase domain. The variant DNA fragment was cloned in the pET21b bacterial expression vector (Novagen) and the NS3/4A complex was expressed in Escherichia. coli strain BL21 (DE3) (Invitrogen) following the protocol described by P. Gallinari et al. (see Gallinari P, Brennan D, Nardi C, Brunetti M, Tomei L, Steinkuhler C, De Francesco R., J. Virol. 72(8):6758–69 (1998)) with modifications. Briefly, NS3/4A expression was induced with 0.5 mM Isopropyl β-D-1-thiogalactopyranoside (IPTG) for 22 hr at 20° C. A typical fermentation (10L) yielded approximately 80 g of wet cell paste. The cells were resuspended in lysis buffer (10 mL/g) consisting of 25 mM N-(2-Hydroxyethyl)Piperazine-N′-(2-Ethane Sulfonic acid) (HEPES), pH7.5, 20% glycerol, 500 mM Sodium Chloride (NaCl), 0.5% Triton-X100, 1 ug/ml lysozyme, 5 mM Magnesium Chloride (MgCl2), lug/ml Dnasel, 5 mM β-Mercaptoethanol (βME), Protease inhibitor—Ethylenediamine Tetraacetic acid (EDTA) free (Roche), homogenized and incubated for 20 mins at 4° C. The homogenate was sonicated and clarified by ultra-centrifugation at 235000 g for 1 hr at 4° C. Imidazole was added to the supernatant to a final concentration of 15 mM and the pH adjusted to 8.0. The crude protein extract was loaded on a Nickel-Nitrilotriacetic acid (Ni-NTA) column pre-equilibrated with buffer B (25 mM HEPES, pH 8.0, 20% glycerol, 500 mM NaCl, 0.5% Triton-X100, 15 mM imidazole, 5 mM βME). The sample was loaded at a flow rate of 1 mL/min. The column was washed with 15 column volumes of buffer C (same as buffer B except with 0.2% Triton-X100). The protein was eluted with 5 column volumes of buffer D (same as buffer C except with 200 mM Imidazole). […]

[1] = HCV NS3/4A protease enzyme assay, read-out: IC50 range

Structure (SMILES) | IC50 [1] [µM] | IC50 (read-out: IC50 range, HCV NS3/4A protease enzyme assay) [µM]
C=CC1C[C@]1(NC(=O)[C@@H]1C[C@@H](OC(=O)Nc2c(C)cccc2C)CN1C(=O)[C@@H](NC(=O)OC(C)(C)C)C(C)(C)C)C(=O)NS(=O)(=O)C1CC1 (stereo partly drawn) [Compound 58, BocNH-P3(t-BuGly)-P2(Hyp(O—CO(NH—(2,6-dimethyl-phenyl))))-P1(1R,2S VinylAcca)—CONHSO2Cyclopropane] | 1 to 10 | 
C=CC1CC1(NC(=O)[C@@H]1C[C@@H](OC(=O)Nc2cccc(C(F)(F)F)c2)CN1C(=O)[C@@H](NC(=O)OC(C)(C)C)C(C)(C)C)C(=O)O (stereo partly drawn) [Compound 109, BocNH-P3(t-BuGly)-P2(Hyp(O—CO(NH—(3-trifluoromethyl-phenyl))))-P1((1R,2S)/(1S,2R) VinylAcca)—CO2H] | > 10 | 
C=CC1CC1(NC(=O)[C@@H]1C[C@@H](OC(=O)NC(C)c2cccc3ccccc23)CN1C(=O)[C@@H](NC(=O)OC(C)(C)C)C(C)(C)C)C(=O)O (stereo partly drawn) [Compound 105, BocNH-P3(t-BuGly)-P2(Hyp(O—CO(NH-1-(R)-1-naphthylethyl)))-P1((1R,2S)/(1S,2R) VinylAcca)—CO2H] | > 10 | 
C=CC1CC1(NC(=O)[C@@H]1C[C@@H](OC(=O)NCc2ccccc2C)CN1C(=O)[C@@H](NC(=O)OC(C)(C)C)C(C)(C)C)C(=O)O (stereo partly drawn) [Compound 103, BocNH-P3(t-BuGly)-P2(Hyp(O—CO(NH—(2-methyl-benzyl))))-P1((1R,2S)/(1S,2R) VinylAcca)—CO2H] | > 10 | 
C=CC1CC1(NC(=O)[C@@H]1C[C@@H](OC(=O)Nc2cc(C)ccc2F)CN1C(=O)[C@@H](NC(=O)OC(C)(C)C)C(C)(C)C)C(=O)O (stereo partly shown) [Compound 107] | > 10 | 
C=CC1CC1(NC(=O)[C@@H]1C[C@@H](OC(=O)Nc2ccccc2)CN1C(=O)[C@@H](NC(=O)OC(C)(C)C)C(C)(C)C)C(=O)O (stereo partly drawn) [Compound 106, BocNH-P3(t-BuGly)-P2(Hyp(O—CO(NH-phenyl)))-P1((1R,2S)/(1S,2R) VinylAcca)—CO2H] | > 10 | 
C=CC1C[C@]1(NC(=O)[C@@H]1C[C@@H](OC(=O)Nc2c(C)cccc2CC)CN1C(=O)[C@@H](NC(=O)OC(C)(C)C)C(C)(C)C)C(=O)NS(=O)(=O)C1CC1 (stereo partly drawn) [Compound 61, BocNH-P3(t-BuGly)-P2(Hyp(O—CO(NH—(2-ethyl-6-methyl))))-P1(1R,2S VinylAcca)—CONHSO2Cyclopropane] | 1 to 10 | 
C=CC1C[C@]1(NC(=O)[C@@H]1C[C@@H](OC(=O)Nc2c(C)nn(C)c2C)CN1C(=O)[C@@H](NC(=O)OC(C)(C)C)C(C)(C)C)C(=O)NS(=O)(=O)C1CC1 (stereo partly drawn) [Compound 68, BocNH-P3(t-BuGly)-P2(Hyp(O—CO(NH—(1,3,5-Trimethyl-pyrazol-4-yl))))-P1(1R,2S VinylAcca)—CONHSO2Cyclopropane] | 1 to 10 | 
C=CC1CC1(NC(=O)[C@@H]1C[C@@H](OC(=O)NCCc2cccs2)CN1C(=O)[C@@H](NC(=O)OC(C)(C)C)C(C)(C)C)C(=O)O (stereo partly drawn) [Compound 108, BocNH-P3(t-BuGly)-P2(Hyp(O—CO(NH—(2-thiophen-2-yl-ethyl))))-P1((1R,2S)/(1S,2R) VinylAcca)—CO2H] | > 10 | 
C=CC1CC1(NC(=O)[C@@H]1C[C@@H](OC(=O)N[C@H](C(=O)OC)[C@@H](C)CC)CN1C(=O)[C@@H](NC(=O)OC(C)(C)C)C(C)(C)C)C(=O)O (stereo partly drawn) [Compound 104, BocNH-P3(t-BuGly)-P2(Hyp(O—CO(NH-2-[(2S,3S)-3-methylvaleric acid methyl ester])))-P1((1R,2S)/(1S,2R) VinylAcca)—CO2H] | 1 to 10 | 
C=CC1CC1(NC(=O)[C@@H]1C[C@@H](OC(=O)Nc2c(F)cccc2F)CN1C(=O)[C@@H](NC(=O)OC(C)(C)C)C(C)(C)C)C(=O)O (stereo partly drawn) [Compound 102, BocNH-P3(t-BuGly)-P2(Hyp(O—CO(NH—(2,6-difluoro-phenyl))))-P1((1R,2S)/(1S,2R) VinylAcca)—CO2H] | > 10 | 
C=CC1C[C@]1(NC(=O)[C@@H]1C[C@@H](OC(=O)Nc2c(CC)cccc2C(C)C)CN1C(=O)[C@@H](NC(=O)OC(C)(C)C)C(C)(C)C)C(=O)NS(=O)(=O)C1CC1 (stereo partly drawn) [Compound 22, BocNH-P3(t-BuGly)-P2(Hyp(O—CO(NH—(2-ethyl-6-isopropyl-phenyl))))-P1(1R,2S VinylAcca)—CONHSO2Cyclopropane] | 1 to 10 | 
C=CC1C[C@]1(NC(=O)[C@@H]1C[C@@H](OC(=O)Nc2c(CC)cccc2CC)CN1C(=O)[C@@H](NC(=O)OC(C)(C)C)C(C)(C)C)C(=O)NS(=O)(=O)C1CC1 (stereo partly drawn) [Compound 62, BocNH-P3(t-BuGly)-P2(Hyp(O—CO(NH—(2,6-diethyl-phenyl))))-P1(1R,2S VinylAcca)—CONHSO2Cyclopropane] |  | 1 to 10
